Source: ChEMBL document CHEMBL4765305, “Elephantopinolide A-P, germacrane-type sesquiterpene lactones from Elephantopus scaber induce apoptosis, autophagy and G2/M phase arrest in hepatocellular carcinoma cells” (Eur J Med Chem, 2020)
Values belong to the compound of their own block, whether it stands above or below them. Active and inactive are the calls of the source. The calls are words filed in the database; no cut-off is given here.

Columns and labels:
[1] = test system: Hep 3B2; test: Induction of autophagy in human Hep3B cells at 6 uM by MDC staining based flow cytometry analysis (reference value: 3.52%); type: functional
[2] = test system: Hep 3B2; test: Induction of autophagy in human Hep3B cells at 3 uM by MDC staining based flow cytometry analysis (reference value: 3.52%); type: functional
[3] = test system: HepG2; test: Anti-hepatoma activity against human HepG2 cells assessed as cell growth inhibition by MTT assay; type: functional, cell-based
[4] = test system: Hep 3B2; test: Anti-hepatoma activity against human Hep3B cells assessed as cell growth inhibition by MTT assay; type: functional, cell-based
[5] = test system: HepG2; test: Induction of apoptosis in human HepG2 cells assessed as cell shrinkage upto 9 uM incubated for 48 hrs by phase contrast microscopy; type: functional, cell-based; settings: dose microM <=9, time 48.0 hrs
[6] = test system: Hep 3B2; test: Induction of apoptosis in human Hep3B cells assessed as cell shrinkage upto 9 uM incubated for 48 hrs by phase contrast microscopy; type: functional, cell-based; settings: dose microM <=9, time 48.0 hrs
[7] = test system: HepG2; test: Induction of apoptosis in human HepG2 cells assessed as membrane blebbing upto 9 uM incubated for 48 hrs by phase contrast microscopy; type: functional, cell-based; settings: dose microM <=9, time 48.0 hrs
[8] = test system: Hep 3B2; test: Induction of apoptosis in human Hep3B cells assessed as membrane blebbing upto 9 uM incubated for 48 hrs by phase contrast microscopy; type: functional, cell-based; settings: dose microM <=9, time 48.0 hrs
[9] = test system: HepG2; test: Induction of apoptosis in human HepG2 cells assessed as nuclear condensation at 3 to 9 uM incubated for 48 hrs by Hoechst 33258 staining based fluorescence microscopy analysis; type: functional, cell-based; settings: dose 3-9 µM
[10] = test system: Hep 3B2; test: Induction of apoptosis in human Hep3B cells assessed as nuclear condensation at 3 to 9 uM incubated for 48 hrs by Hoechst 33258 staining based fluorescence microscopy analysis; type: functional, cell-based; settings: dose 3-9 µM
[11] = test system: HepG2; test: Induction of apoptosis in human HepG2 cells assessed as nuclear fragmentation at 3 to 9 uM incubated for 48 hrs by Hoechst 33258 staining based fluorescence microscopy analysis; type: functional, cell-based; settings: dose 3-9 µM
[12] = test system: Hep 3B2; test: Induction of apoptosis in human Hep3B cells assessed as nuclear fragmentation at 3 to 9 uM incubated for 48 hrs by Hoechst 33258 staining based fluorescence microscopy analysis; type: functional, cell-based; settings: dose 3-9 µM
[13] = test system: Hep 3B2; test: Induction of apoptosis in human Hep3B cells assessed as early apoptotic cells at 3 uM incubated for 48 hrs by AnnexinV-FITC and propidium iodide staining based flow cytometry analysis (reference value: 3.05%); type: functional
[14] = test system: Hep 3B2; test: Induction of apoptosis in human Hep3B cells assessed as early apoptotic cells at 6 uM incubated for 48 hrs by AnnexinV-FITC and propidium iodide staining based flow cytometry analysis (reference value: 3.05%); type: functional
[15] = test system: Hep 3B2; test: Induction of apoptosis in human Hep3B cells assessed as early apoptotic cells at 9 uM incubated for 48 hrs by AnnexinV-FITC and propidium iodide staining based flow cytometry analysis (reference value: 3.05%); type: functional
[16] = test system: Hep 3B2; test: Induction of apoptosis in human Hep3B cells assessed as late apoptotic cells at 3 uM incubated for 48 hrs by AnnexinV-FITC and propidium iodide staining based flow cytometry analysis (reference value: 3.32%); type: functional
[17] = test system: Hep 3B2; test: Induction of apoptosis in human Hep3B cells assessed as late apoptotic cells at 6 uM incubated for 48 hrs by AnnexinV-FITC and propidium iodide staining based flow cytometry analysis (reference value: 3.32%); type: functional
[18] = test system: Hep 3B2; test: Induction of apoptosis in human Hep3B cells assessed as late apoptotic cells at 9 uM incubated for 48 hrs by AnnexinV-FITC and propidium iodide staining based flow cytometry analysis (reference value: 3.32%); type: functional
[19] = test system: HepG2; test: Induction of apoptosis in human HepG2 cells assessed as early apoptotic cells at 3 uM incubated for 48 hrs by AnnexinV-FITC and propidium iodide staining based flow cytometry analysis (reference value: 2.45%); type: functional
[20] = test system: HepG2; test: Induction of apoptosis in human HepG2 cells assessed as early apoptotic cells at 6 uM incubated for 48 hrs by AnnexinV-FITC and propidium iodide staining based flow cytometry analysis (reference value: 2.45%); type: functional
[21] = test system: HepG2; test: Induction of apoptosis in human HepG2 cells assessed as early apoptotic cells at 9 uM incubated for 48 hrs by AnnexinV-FITC and propidium iodide staining based flow cytometry analysis (reference value: 2.45%); type: functional
[22] = test system: HepG2; test: Induction of apoptosis in human HepG2 cells assessed as late apoptotic cells at 3 uM incubated for 48 hrs by AnnexinV-FITC and propidium iodide staining based flow cytometry analysis (reference value: 2.46%); type: functional
[23] = test system: HepG2; test: Induction of apoptosis in human HepG2 cells assessed as late apoptotic cells at 6 uM incubated for 48 hrs by AnnexinV-FITC and propidium iodide staining based flow cytometry analysis (reference value: 2.46%); type: functional
[24] = test system: HepG2; test: Induction of apoptosis in human HepG2 cells assessed as late apoptotic cells at 9 uM incubated for 48 hrs by AnnexinV-FITC and propidium iodide staining based flow cytometry analysis (reference value: 2.46%); type: functional
[25] = test system: HepG2; test: Induction of apoptosis in human HepG2 cells assessed as increase in caspase-3 activity measured after 2 hrs by microplate reader; type: functional, cell-based; settings: dose 3-9 µM
[26] = test system: Hep 3B2; test: Induction of apoptosis in human Hep3B cells assessed as increase in caspase-3 activity measured after 2 hrs by microplate reader; type: functional, cell-based; settings: dose 3-9 µM
[27] = test system: HepG2; test: Induction of apoptosis in human HepG2 cells assessed as increase in cleaved caspase-3 activity measured by western blot analysis; type: functional, cell-based; settings: dose 3-9 µM
[28] = test system: HepG2; test: Induction of apoptosis in human HepG2 cells assessed as increase in FADD level measured by western blot analysis; type: functional, cell-based; settings: dose 3-9 µM
[29] = test system: HepG2; test: Induction of apoptosis in human HepG2 cells assessed as decrease in PARP level at 3 to 9 uM measured by western blot analysis; type: functional, cell-based; settings: dose 3-9 µM
[30] = test system: HepG2; test: Induction of apoptosis in human HepG2 cells assessed as decrease in Bcl-2 level measured by western blot analysis; type: functional, cell-based; settings: dose 3-9 µM
[31] = test system: HepG2; test: Induction of apoptosis in human HepG2 cells assessed as increase in Bax level at 3 to 9 uM measured by western blot analysis; type: functional, cell-based; settings: dose 3-9 µM
[32] = test system: Hep 3B2; test: Induction ROS generation in human Hep3B cells assessed as intracellular ROS level measured after 4 hrs by H2DCF-DA probe based flow cytometry (reference value: 4.24 %); type: functional
[33] = test system: Hep 3B2; test: Induction ROS generation in human Hep3B cells assessed as intracellular ROS level measured after 2 hrs by H2DCF-DA probe based flow cytometry (reference value: 4.24 %); type: functional
[34] = test system: Hep 3B2; test: Induction ROS generation in human Hep3B cells assessed as intracellular ROS level measured after 1 hrs by H2DCF-DA probe based flow cytometry (reference value: 4.24 %); type: functional
[35] = test system: Hep 3B2; test: Induction ROS generation in human Hep3B cells assessed as intracellular ROS level measured after 30 mins by H2DCF-DA probe based flow cytometry (reference value: 4.24 %); type: functional; settings: 0.5 h
[36] = test system: Hep 3B2; test: Induction ROS generation in human Hep3B cells assessed as intracellular ROS level measured after 15 mins by H2DCF-DA probe based flow cytometry (reference value: 4.24 %); type: functional; settings: 0.25 h
[37] = test system: Hep 3B2; test: Induction of mitochondrial membrane potential loss in human Hep3B cells measured after 48 hrs by JC-1 staining based flow cytometry analysis; type: functional, cell-based; settings: dose 3-9 µM
[38] = test system: HepG2; test: Induction ROS generation in human HepG2 cells assessed as intracellular ROS level measured after 4 hrs by H2DCF-DA probe based flow cytometry (reference value: 5.05%); type: functional
[39] = test system: HepG2; test: Induction ROS generation in human HepG2 cells assessed as intracellular ROS level measured after 2 hrs by H2DCF-DA probe based flow cytometry (reference value: 5.05%); type: functional
[40] = test system: HepG2; test: Induction of mitochondrial membrane potential loss in human HepG2 cells measured after 48 hrs by JC-1 staining based flow cytometry analysis; type: functional, cell-based; settings: dose 3-9 µM
[41] = test system: HepG2; test: Induction ROS generation in human HepG2 cells assessed as intracellular ROS level measured after 1 hrs by H2DCF-DA probe based flow cytometry (reference value: 5.05%); type: functional
[42] = test system: HepG2; test: Induction ROS generation in human HepG2 cells assessed as intracellular ROS level measured after 30 mins by H2DCF-DA probe based flow cytometry (reference value: 5.05%); type: functional; settings: 0.5 h
[43] = test system: HepG2; test: Induction ROS generation in human HepG2 cells assessed as intracellular ROS level measured after 15 mins by H2DCF-DA probe based flow cytometry (reference value: 5.05%); type: functional; settings: 0.25 h
[44] = test system: Hep 3B2; test: Induction of autophagy in human Hep3B cells at 9 uM by MDC staining based flow cytometry analysis (reference value: 3.52%); type: functional
[45] = test system: HepG2; test: Induction of autophagy in human HepG2 cells at 3 uM by MDC staining based flow cytometry analysis (reference value: 4.46%); type: functional
[46] = test system: HepG2; test: Induction of autophagy in human HepG2 cells at 6 uM by MDC staining based flow cytometry analysis (reference value: 4.46%); type: functional
[47] = test system: HepG2; test: Induction of autophagy in human HepG2 cells at 9 uM by MDC staining based flow cytometry analysis (reference value: 4.46%); type: functional
[48] = test system: HepG2; test: Induction of cell cycle arrest in human HepG2 cells assessed as accumulation at G2/M phase by PI-staining based flow cytometric analysis; type: functional
[49] = test system: Hep 3B2; test: Induction of cell cycle arrest in human Hep3B cells assessed as accumulation at G2/M phase by PI-staining based flow cytometric analysis; type: functional
[50] = test system: HepG2; test: Activation of ERK phosphorylation in human HepG2 cells by Western blot analysis; type: cell-based; settings: filed as activator, dose 3-9 µM
[51] = test system: HepG2; test: Activation of p-38 phosphorylation in human HepG2 cells by Western blot analysis; type: cell-based; settings: filed as activator, dose 3-9 µM
[52] = test system: HepG2; test: Activation of JNK phosphorylation in human HepG2 cells by Western blot analysis; type: cell-based; settings: filed as activator, dose 3-9 µM

IC50 [3]: 2.83 µM
Structure (SMILES): C=C(C)C(=O)O[C@H]1CC2=C[C@@H](C[C@@]3(C)O[C@H]3[C@H]3OC(=O)C(=C)[C@@H]31)OC2=O
Activity [1]: 39.2% | Activity [2]: 15.7% | IC50 [4]: 1.98 µM | Activity [5]: Active | Activity [6]: Active | Activity [7]: Active | Activity [8]: Active | Activity [9]: Active | Activity [10]: Active | Activity [11]: Active | Activity [12]: Active | Activity [13]: 5.14% | Activity [14]: 18.2% | Activity [15]: 15.5% | Activity [16]: 5.56% | Activity [17]: 11.9% | Activity [18]: 31.9% | Activity [19]: 14.9% | Activity [20]: 33.7% | Activity [21]: 37.8% | Activity [22]: 4.56% | Activity [23]: 13.2% | Activity [24]: 29.1% | Activity [25]: Dose-dependent effect | Activity [26]: Dose-dependent effect | Activity [27]: Dose-dependent effect | Activity [28]: Dose-dependent effect | Activity [29]: Active | Activity [30]: Dose-dependent effect | Activity [31]: Active | Activity [32]: 5.04% | Activity [33]: 7.42% | Activity [34]: 9.85% | Activity [35]: 22.8% | Activity [36]: 19.5% | Activity [37]: Dose-dependent effect | Activity [38]: 6.58% | Activity [39]: 13.1% | Activity [40]: Dose-dependent effect | Activity [41]: 14.6% | Activity [42]: 28.9% | Activity [43]: 19.9% | Activity [44]: 69.6% | Activity [45]: 9.52% | Activity [46]: 28.2% | Activity [47]: 65.9% | Activity [48]: Active | Activity [49]: Active | Activity [50]: Dose-dependent effect | Activity [51]: Dose-dependent effect | Activity [52]: Dose-dependent effect

IC50 [3]: > 20 µM
Structure (SMILES): C=C(C)C(=O)OCC1=C2[C@@H](O)CC3=C[C@@H](C/C(C)=C/[C@H]2OC1=O)OC3=O
IC50 [4]: > 20 µM

IC50 [3]: > 20 µM
Structure (SMILES): C[C@@H]1C(=O)O[C@H]2CC3=C[C@@H](C[C@@](C)(O)/C=C/[C@@H]21)OC3=O
IC50 [4]: > 20 µM

IC50 [3]: 5.99 µM
Structure (SMILES): C=C1C(=O)O[C@H]2[C@H]1[C@@H](OC(=O)/C(C)=C\C)CC1=C[C@@H](C[C@@]3(C)O[C@@H]23)OC1=O
IC50 [4]: 3.74 µM

IC50 [3]: > 20 µM
Structure (SMILES): C=C(C(=O)OC)[C@H]1/C=C/[C@](C)(O)C[C@@H]2C=C(C[C@@H]1OC(=O)/C(C)=C\C)C(=O)O2
IC50 [4]: > 20 µM
